Measured values from ChEMBL document CHEMBL4673234, “Design, synthesis, biological evaluation and molecular docking of new uracil analogs-1,2,4-oxadiazole hybrids as potential anticancer agents” (Bioorg Med Chem Lett, 2020).

Tests used:
A-375 [1] = assay: Cytotoxicity against human A-375 cells assessed as cell viability at 5 uM incubated for 48 hrs (reference value: 100 %); type: functional; settings: read-out: Activity
A-375 [2] = assay: Cytotoxicity against human A-375 cells assessed as cell viability at 10 uM incubated for 48 hrs (reference value: 100 %); type: functional; settings: read-out: Activity
HT-1080 [3] = assay: Cytotoxicity against human HT-1080 cells assessed as reduction in cell viability incubated for 48 hrs; type: functional, cell-based; settings: HT-1080, 48 h
MCF7 = assay: Cytotoxicity against human MCF7 cells assessed as reduction in cell viability incubated for 48 hrs; type: functional, cell-based; settings: MCF7, 48 h
MDA-MB-231 = assay: Cytotoxicity against human MDA-MB-231 cells assessed as reduction in cell viability incubated for 48 hrs; type: functional, cell-based; settings: MDA-MB-231, 48 h
A549 [4] = assay: Cytotoxicity against human A549 cells assessed as reduction in cell viability incubated for 48 hrs; type: functional, cell-based; settings: A549, 48 h
A549 [5] = assay: Induction of apoptosis in human A549 cells assessed as viable cells at 5 uM incubated for 24 hrs by AnnexinV-FITC/7-AAD double staining based analysis (reference value: 89.88 %); type: functional; settings: read-out: Activity
A549 [6] = assay: Induction of cell cycle arrest in human A549 cells assessed as G0/G1 phase at 5 uM incubated for 24 hrs by flow cytometry analysis (reference value: 73.5 %); type: functional
HT-1080 [7] = assay: Induction of apoptosis in human HT-1080 cells assessed as early apoptotic cells at 5 uM incubated for 24 hrs by AnnexinV-FITC/7-AAD double staining based analysis relative to control; type: functional
HT-1080 [8] = assay: Induction of cell cycle arrest in human HT-1080 cells assessed as S phase at 5 uM incubated for 24 hrs by flow cytometry analysis (reference value: 10.3 %); type: functional
HT-1080 [9] = assay: Induction of apoptosis in human HT-1080 cells assessed as early apoptotic cells at 5 uM incubated for 24 hrs by AnnexinV-FITC/7-AAD double staining based analysis (reference value: 1.22 %); type: functional
[10] = biological target: T1, Caspase-3/Caspase-7 (Homo sapiens) (UniProt P42574+P55210); assay: Induction of caspase 3/7 proteolytic activity in human A549 cells assessed as induction of apoptosis by measuring apoptotic/dead cells at 5 uM incubated for 24 hrs by flow cytometry analysis (reference value: 5.65 %); type: cell-based
HT-1080 [11] = assay: Induction of apoptosis in human HT-1080 cells assessed as late apoptotic cells at 5 uM incubated for 24 hrs by AnnexinV-FITC/7-AAD double staining based analysis (reference value: 0.12 %); type: functional
A549 [12] = assay: Induction of apoptosis in human A549 cells assessed as early apoptotic cells at 5 uM incubated for 24 hrs by AnnexinV-FITC/7-AAD double staining based analysis relative to control; type: functional
HT-1080 [13] = assay: Induction of mitochondrial membrane potential dysfunction in human HT-1080 cells assessed as dead cells at 5 uM incubated for 24 hrs by flow cytometry analysis (reference value: 7.61 %); type: functional
HT-1080 [14] = assay: Induction of apoptosis in human HT-1080 cells assessed as necrotic cells at 5 uM incubated for 24 hrs by AnnexinV-FITC/7-AAD double staining based analysis (reference value: 0.73 %); type: functional
A549 [15] = assay: Induction of cell cycle arrest in human A549 cells assessed as G2/M phase at 5 uM incubated for 24 hrs by flow cytometry analysis (reference value: 11.6 %); type: functional
A549 [16] = assay: Induction of mitochondrial membrane potential dysfunction in human A549 cells assessed as depolarized live cells at 5 uM incubated for 24 hrs by flow cytometry analysis (reference value: 1.16 %); type: functional
[17] = biological target: T1, Caspase-3/Caspase-7 (Homo sapiens); assay: Induction of caspase 3/7 proteolytic activity in human HT-1080 cells assessed as induction of apoptosis by measuring apoptotic cells at 5 uM incubated for 24 hrs by flow cytometry analysis (reference value: 1.48 %); type: cell-based
A549 [18] = assay: Induction of apoptosis in human A549 cells at 5 uM incubated for 24 hrs by AnnexinV-FITC/7-AAD double staining based analysis (reference value: 9.08%); type: functional
A549 [19] = assay: Induction of apoptosis in human A549 cells at 5 uM incubated for 24 hrs by AnnexinV-FITC/7-AAD double staining based analysis relative to control; type: functional
HT-1080 [20] = assay: Induction of mitochondrial membrane potential dysfunction in human HT-1080 cells assessed as viable cells at 5 uM incubated for 24 hrs by flow cytometry analysis (reference value: 90.10 %); type: functional; settings: read-out: Activity
HT-1080 [21] = assay: Induction of apoptosis in human HT-1080 cells at 5 uM incubated for 24 hrs by AnnexinV-FITC/7-AAD double staining based analysis (reference value: 1.34%); type: functional
A549 [22] = assay: Induction of mitochondrial membrane potential dysfunction in human A549 cells assessed as dead cells at 5 uM incubated for 24 hrs by flow cytometry analysis (reference value: 9.92 %); type: functional
A549 [23] = assay: Induction of mitochondrial membrane potential dysfunction in human A549 cells assessed as depolarized dead cells at 5 uM incubated for 24 hrs by flow cytometry analysis (reference value: 0.39 %); type: functional
HT-1080 [24] = assay: Induction of cell cycle arrest in human HT-1080 cells assessed as G0/G1 phase at 5 uM incubated for 24 hrs by flow cytometry analysis (reference value: 63 %); type: functional
A549 [25] = assay: Induction of apoptosis in human A549 cells assessed as necrotic cells at 5 uM incubated for 24 hrs by AnnexinV-FITC/7-AAD double staining based analysis (reference value: 1.04 %); type: functional
HT-1080 [26] = assay: Induction of cell cycle arrest in human HT-1080 cells assessed as G2/M phase at 5 uM incubated for 24 hrs by flow cytometry analysis (reference value: 25.6 %); type: functional
A549 [27] = assay: Induction of mitochondrial membrane potential dysfunction in human A549 cells assessed as viable cells at 5 uM incubated for 24 hrs by flow cytometry analysis (reference value: 86.64 to 88.54 %); type: functional; settings: read-out: Activity
A549 [28] = assay: Induction of cell cycle arrest in human A549 cells assessed as S phase at 5 uM incubated for 24 hrs by flow cytometry analysis (reference value: 9.6 %); type: functional
[29] = biological target: T1, Caspase-3/Caspase-7 (Homo sapiens); assay: Induction of caspase 3/7 proteolytic activity in human HT-1080 cells assessed as induction of apoptosis by measuring viable cells at 5 uM incubated for 24 hrs by flow cytometry analysis (reference value: 91.39 %); type: cell-based; settings: filed as activator
[30] = Induction of caspase 3/7 proteolytic activity in human HT-1080 cells assessed as induction of apoptosis at 5 uM incubated for 24 hrs by flow cytometry analysis relative to control; type: functional
HT-1080 [31] = assay: Induction of mitochondrial membrane potential dysfunction in human HT-1080 cells assessed as depolarized live cells at 5 uM incubated for 24 hrs by flow cytometry analysis (reference value: 2.28 %); type: functional
A549 [32] = assay: Induction of apoptosis in human A549 cells assessed as early apoptotic cells at 5 uM incubated for 24 hrs by AnnexinV-FITC/7-AAD double staining based analysis (reference value: 6.07 %); type: functional
A549 [33] = assay: Induction of apoptosis in human A549 cells assessed as late apoptotic cells at 5 uM incubated for 24 hrs by AnnexinV-FITC/7-AAD double staining based analysis (reference value: 3.01 %); type: functional
[34] = biological target: T1, Caspase-3/Caspase-7 (Homo sapiens); assay: Induction of caspase 3/7 proteolytic activity in human HT-1080 cells assessed as induction of apoptosis by measuring apoptotic/dead cells at 5 uM incubated for 24 hrs by flow cytometry analysis (reference value: 4.97 %); type: cell-based
[35] = biological target: T1, Caspase-3/Caspase-7 (Homo sapiens); assay: Induction of caspase 3/7 proteolytic activity in human HT-1080 cells assessed as induction of apoptosis by measuring dead cells at 5 uM incubated for 24 hrs by flow cytometry analysis (reference value: 2.15 %); type: cell-based
[36] = biological target: T1, Caspase-3/Caspase-7 (Homo sapiens); assay: Induction of caspase 3/7 proteolytic activity in human A549 cells assessed as induction of apoptosis by measuring viable cells at 5 uM incubated for 24 hrs by flow cytometry analysis (reference value: 88.91 %); type: cell-based; settings: filed as activator
HT-1080 [37] = assay: Induction of apoptosis in human HT-1080 cells assessed as viable cells at 5 uM incubated for 24 hrs by AnnexinV-FITC/7-AAD double staining based analysis (reference value: 97.92 %); type: functional; settings: read-out: Activity
[38] = Induction of caspase 3/7 proteolytic activity in human A549 cells assessed as induction of apoptosis at 5 uM incubated for 24 hrs by flow cytometry analysis relative to control; type: functional
HT-1080 [39] = assay: Induction of apoptosis in human HT-1080 cells at 5 uM incubated for 24 hrs by AnnexinV-FITC/7-AAD double staining based analysis relative to control; type: functional
HT-1080 [40] = assay: Induction of mitochondrial membrane potential dysfunction in human HT-1080 cells assessed as depolarized dead cells at 5 uM incubated for 24 hrs by flow cytometry analysis (reference value: 0.0 %); type: functional
[41] = biological target: T1, Caspase-3/Caspase-7 (Homo sapiens); assay: Induction of caspase 3/7 proteolytic activity in human A549 cells assessed as induction of apoptosis by measuring apoptotic cells at 5 uM incubated for 24 hrs by flow cytometry analysis (reference value: 2.54 %); type: cell-based
[42] = biological target: T1, Caspase-3/Caspase-7 (Homo sapiens); assay: Induction of caspase 3/7 proteolytic activity in human A549 cells assessed as induction of apoptosis by measuring dead cells at 5 uM incubated for 24 hrs by flow cytometry analysis (reference value: 2.90 %); type: cell-based

T1 sequence (P42574 whole entry, looked up): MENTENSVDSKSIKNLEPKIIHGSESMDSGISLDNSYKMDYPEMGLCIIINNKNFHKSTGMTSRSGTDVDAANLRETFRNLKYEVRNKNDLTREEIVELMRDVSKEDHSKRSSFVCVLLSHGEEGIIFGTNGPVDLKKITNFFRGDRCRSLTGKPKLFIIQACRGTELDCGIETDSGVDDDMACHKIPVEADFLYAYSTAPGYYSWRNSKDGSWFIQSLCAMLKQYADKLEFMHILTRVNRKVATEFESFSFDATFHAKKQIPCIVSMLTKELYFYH
T1 sequence (P55210 whole entry, looked up): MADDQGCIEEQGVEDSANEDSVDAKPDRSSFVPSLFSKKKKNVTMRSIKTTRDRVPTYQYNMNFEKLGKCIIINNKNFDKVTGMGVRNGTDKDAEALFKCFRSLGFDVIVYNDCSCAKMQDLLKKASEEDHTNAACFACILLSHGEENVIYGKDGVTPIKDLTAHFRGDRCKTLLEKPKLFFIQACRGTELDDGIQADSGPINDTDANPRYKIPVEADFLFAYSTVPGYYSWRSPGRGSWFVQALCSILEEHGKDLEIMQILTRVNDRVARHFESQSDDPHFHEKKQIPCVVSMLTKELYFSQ

COc1ccc(-c2nc(-c3ccc(Cn4cc(F)c(=O)[nH]c4=O)cc3)no2)cc1
viability at 5 µM (A-375 [1]): 50%
viability at 10 µM (A-375 [2]): 82%

COc1ccc(-c2ccc(-c3nc(-c4ccc(Cn5ncc(=O)[nH]c5=O)cc4)no3)cc2)cc1
viability at 5 µM (A-375 [1]): 76%
viability at 10 µM (A-375 [2]): 44%

COc1cccc2c1C(=O)c1c(O)c3c(c(O)c1C2=O)C[C@@](O)(C(=O)CO)C[C@@H]3O[C@H]1C[C@H](N)[C@H](O)[C@H](C)O1 [DOXORUBICIN]
IC50 (HT-1080 [3]): 0.93 µM
IC50 (MCF7): 1.83 µM
IC50 (MDA-MB-231): 3.41 µM
IC50 (A549 [4]): 2.67 µM

O=c1ccn(Cc2ccc(-c3noc(-c4ccccc4)n3)cc2)c(=O)[nH]1
viability at 5 µM (A-375 [1]): 76%
viability at 10 µM (A-375 [2]): 72%

O=c1cnn(Cc2ccc(-c3noc(-c4ccccc4)n3)cc2)c(=O)[nH]1
viability at 5 µM (A-375 [1]): 100%
viability at 10 µM (A-375 [2]): 62%

COc1ccc(-c2nc(-c3ccc(Cn4ncc(=O)[nH]c4=O)cc3)no2)cc1
viability at 5 µM (A-375 [1]): 53%
viability at 10 µM (A-375 [2]): 55%

O=c1[nH]c(=O)n(Cc2ccc(-c3noc(-c4ccccc4)n3)cc2)cc1F
viability at 5 µM (A-375 [1]): 56%
viability at 10 µM (A-375 [2]): 30%

COc1ccc(-c2ccc(-c3nc(-c4ccc(Cn5cc(F)c(=O)[nH]c5=O)cc4)no3)cc2)cc1
IC50 (HT-1080 [3]): 0.98 µM
IC50 (MCF7): 0.89 µM
IC50 (MDA-MB-231): 6.52 µM
viability at 5 µM (A-375 [1]): 29%
IC50 (A549 [4]): 4.02 µM
viability at 10 µM (A-375 [2]): 23%

O=c1[nH]c(=O)n(Cc2ccc(-c3noc(-c4ccc(-c5ccccc5)cc4)n3)cc2)cc1F
IC50 (HT-1080 [3]): 0.88 µM
viability at 5 µM (A549 [5]): 72.7%
Activity (A549 [6]): 71.8%
fold change (FC) (HT-1080 [7]): 3.5
IC50 (MCF7): 1.19 µM
Activity (HT-1080 [8]): 13.9%
Activity (HT-1080 [9]): 4.25%
Activity [10]: 25.8%
Activity (HT-1080 [11]): 9.56%
fold change (FC) (A549 [12]): 1.5
Activity (HT-1080 [13]): 16.96%
Activity (HT-1080 [14]): 1.49%
Activity (A549 [15]): 11.5%
Activity (A549 [16]): 1.03%
IC50 (MDA-MB-231): 8.37 µM
Activity [17]: 2.87%
Activity (A549 [18]): 29.01%
fold change (FC) (A549 [19]): 3
viability at 5 µM (HT-1080 [20]): 78.7%
Activity (HT-1080 [21]): 13.81%
viability at 5 µM (A-375 [1]): 29%
Activity (A549 [22]): 20.29%
Activity (A549 [23]): 0.63%
IC50 (A549 [4]): 3.12 µM
Activity (HT-1080 [24]): 59.9%
Activity (A549 [25]): 3.26%
Activity (HT-1080 [26]): 24.1%
viability at 5 µM (A549 [27]): 78%
Activity (A549 [28]): 12%
Activity [29]: 68.6%
fold change (FC) [30]: 3
Activity (HT-1080 [31]): 3.61%
Activity (A549 [32]): 9.29%
Activity (A549 [33]): 14.72%
Activity [34]: 19.4%
Activity [35]: 9.15%
Activity [36]: 64.3%
viability at 5 µM (HT-1080 [37]): 84.7%
fold change (FC) [38]: 3
fold change (FC) (HT-1080 [39]): 10
Activity (HT-1080 [40]): 0%
Activity [41]: 3.25%
Activity [42]: 6.64%
viability at 10 µM (A-375 [2]): 17%

O=c1ccn(Cc2ccc(-c3noc(-c4ccc(-c5ccccc5)cc4)n3)cc2)c(=O)[nH]1
viability at 5 µM (A-375 [1]): 85%
viability at 10 µM (A-375 [2]): 82%

COc1ccc(-c2nc(-c3ccc(Cn4ccc(=O)[nH]c4=O)cc3)no2)cc1
viability at 5 µM (A-375 [1]): 59%
viability at 10 µM (A-375 [2]): 55%

N/C(=N\O)c1ccc(Cn2ncc(=O)[nH]c2=O)cc1
viability at 5 µM (A-375 [1]): 100%
viability at 10 µM (A-375 [2]): 94%
